hydrolysis, caloric availability and hydrolyzed data for two molecules are collected here from patent publication US20010048964A1, “Low calorie fat compositions” (priority 2000, published 2001).

Data set [1] deals with T1, porcine lipase (Sus scrofa, UniProt P00591).
T1 sequence (P00591 1-450): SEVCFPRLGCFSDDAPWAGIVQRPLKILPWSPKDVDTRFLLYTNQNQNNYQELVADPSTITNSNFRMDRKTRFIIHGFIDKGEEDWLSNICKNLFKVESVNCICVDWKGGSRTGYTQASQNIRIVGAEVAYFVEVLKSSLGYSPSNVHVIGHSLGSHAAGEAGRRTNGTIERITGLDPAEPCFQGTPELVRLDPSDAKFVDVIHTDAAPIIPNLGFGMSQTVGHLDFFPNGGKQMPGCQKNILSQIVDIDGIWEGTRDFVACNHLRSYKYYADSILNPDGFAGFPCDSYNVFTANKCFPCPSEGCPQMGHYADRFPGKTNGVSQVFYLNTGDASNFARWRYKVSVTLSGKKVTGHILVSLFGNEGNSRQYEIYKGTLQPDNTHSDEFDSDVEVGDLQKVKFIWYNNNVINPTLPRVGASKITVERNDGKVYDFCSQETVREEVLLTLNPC
Briefly: Hydrolysis by pancreatic lipase, organic solvent system. The data set is classed as in vitro ADME. Particulars: organic solvent (t-amyl alcohol), 30° C., 20 h. How it is done:
(§1) The digestibility of the acylated triglycerides of the present invention were done to compare with triolein. The in-vitro assays were done using two emulsion systems as in the following procedure.
Each digest was carried out with 300 mg of the fat/fat substitute, 9 ml of the t-amyl alcohol, 0.5 ml of Bis-Tris propane buffer (10 mM, pH 7.8) and 0.5 ml of porcine lipase (20 mg/ml). The reaction was incubated at 30° C. and the reaction stopped by adding 1 ml aliquots to 3 ml of isopropanol/heptane/sulfuric acid (40/10/1). The product was extracted with heptane and analyzed by GC and GC-MS at 360° C. The hydrolysis of the acetylated castor (hydrogenated) was 48% complete in 20 h and triolein was hydrolyzed to 69%.

Data set [2] can be described thus: Caloric availability, two week feeding study. The data set is classed as in vivo. Particulars: young male Sprague-Dawley rats, modified AIN-76 diet at 15% added fat level. On the procedure: Caloric availability of the compounds are evaluated by the two week feeding study of young male Sprague-Dawley rats weighing approximately 50 to 60 gm. This caloric availability study as described described by Finley, et al. ((1994) J. Agric. Food Chem. 42:489-494) was modified to use smaller amounts of test materials. The feeding study was conducted using a modified AIN-76 diet at 15% added fat level and five test animals are used for each compound. Weight gains are monitored at days 0,3,7,10 and 14.

Data set [3] has as its target T1, porcine lipase. Briefly: Hydrolysis by pancreatic lipase, aqueous emulsion system. In kind it is in vitro ADME. Particulars: aqueous emulsion (HMPC, sodium cholate), 30 ° C. On the procedure: as §1
A mixture of 300 mg of the fat/fat substitute, 4 ml of Bis-Tris propane buffer (10 mM, pH 7.8), 5 ml of hydroxyproylmethylcellulose (HMPC, […]), 0.5 ml of sodium cholate (0.1M) were sonicated to disperse the fats and incubated at 30 ° C. Porcine lipase (0.5 ml, 20 mg/ml) was added. The analysis of the reaction was carried out as in the above organic solution assay. Acetylated castor (hydrogenated) was 70% hydrolyzed while triolein under similar conditions was 93% hydrolyzed.

SMILES strings stand for the structures.

In turn, `CCCCCCC(CCCCCCCCCCC(=O)OCC(COC(=O)CCCCCCCCCCC(CCCCCC)OC(C)=O)OC(=O)CCCCCCCCCCC(CCCCCC)OC(C)=O)OC(C)=O` (stereo not shown) [acetylated castor (hydrogenated), 12-acetyloxyoctadecanoic acid triglyceride] returned a hydrolysis on porcine lipase [1] of 48%. The molecule further had a caloric availability in data set [2] of 6 kcal/g. The hydrolyzed at porcine lipase [3] is recorded as 70%.
In data set [2], `CCCCCCCCCCCCCCCCCC(=O)OC(CCCCCC)CCCCCCCCCCCCC(=O)OCC(COC(=O)CCCCCCCCCCCCC(CCCCCC)OC(=O)CCCCCCCCCCCCCCCCC)OC(=O)CCCCCCCCCCCCCCCCC` (stereo not shown) [distearoyl lesquerella oil-hydrogenated, 1,3-bis(14-octadecanoyloxy)eicosanoic acid-2-octadecanoic acid triglyceride] showed a caloric availability of 5.6 kcal/g.
